Source: PubChem BioAssay (NCI)
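Cells were grown in 96-well plates and exposed to each compound for 48 hours at five concentrations; endpoints were interpolated linearly between bracketing concentrations, or set to the highest concentration if not reached. The concentration for 50% growth inhibition is given as GI50. TGI denotes the concentration required for complete inhibition of growth.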

Assays:
Assay in all cases: NCI-60 cell line screen, 48 h
RXF 393 renal = tested on: RXF 393 renal
HOP-92 NSCLC = tested on: HOP-92 NSCLC
ACHN renal = tested on: ACHN renal
EKVX NSCLC = tested on: EKVX NSCLC
TK-10 renal = tested on: TK-10 renal
NCI-H460 lung = tested on: NCI-H460 lung
KM12 colon = tested on: KM12 colon
U251 CNS = tested on: U251 CNS
HCT-116 colon = tested on: HCT-116 colon
A498 renal = tested on: A498 renal

Row | SMILES | GI50 (RXF 393 renal) [µM] | TGI (RXF 393 renal) [µM] | GI50 (HOP-92 NSCLC) [µM] | TGI (HOP-92 NSCLC) [µM] | GI50 (ACHN renal) [µM] | TGI (ACHN renal) [µM] | GI50 (EKVX NSCLC) [µM] | TGI (EKVX NSCLC) [µM] | GI50 (TK-10 renal) [µM] | TGI (TK-10 renal) [µM] | GI50 (NCI-H460 lung) [µM] | TGI (NCI-H460 lung) [µM] | GI50 (KM12 colon) [µM] | TGI (KM12 colon) [µM] | GI50 (U251 CNS) [µM] | TGI (U251 CNS) [µM] | GI50 (HCT-116 colon) [µM] | TGI (HCT-116 colon) [µM] | GI50 (A498 renal) [µM] | TGI (A498 renal) [µM]
1 | COc1cc(-c2cc3ncccc3c3nc(OCCN(C)C)c4cccnc4c23)cc(OC)c1OC | 0.473 | 2.07 | 1.1 | 3.2 | 0.281 | 1.54 | 0.513 | 3.24 | 0.294 | 1.39 | 0.349 | 1.88 | 1.14 | > 100 | 0.391 | 1.66 | – | – | – | –
2 | Cc1ccccc1C1=C(c2cn(C)c3ccccc23)C(=O)NC1=O | 7.02 | > 25 | > 25 | > 25 | 7.33 | > 25 | – | – | > 25 | > 25 | 14.3 | > 25 | 10.8 | > 25 | 13.2 | > 25 | 7.77 | > 25 | 6.52 | 20.7
3 | COc1cc(OC)cc(Oc2cnc3cc(N)cc(N)c3n2)c1 | 15.4 | 29 | – | – | 15.8 | 33.3 | 18.5 | 46.2 | 16.6 | 38.5 | 19.4 | 41.2 | 10.3 | 24.1 | 15.5 | 28.8 | 6.47 | 20.2 | 11.8 | 39.9
4 | O=[N+]([O-])c1ccc(/C=C/c2nc3ccc(Cl)cc3[nH]2)cc1 | 71.7 | > 100 | – | – | 17.8 | 50.9 | > 100 | > 100 | 28.2 | > 100 | 17.8 | 84.9 | 5.6 | > 100 | 16.3 | 35.3 | 15.7 | 37.6 | 13.9 | 44.2
5 | COc1cc2c3c(n(CCCN(CCCN(CCCn4c5c(c6ccccc6c4=O)C(=O)c4ccccc4-5)C(=O)OC(C)(C)C)C(=O)OC(C)(C)C)c(=O)c2cc1OC)-c1cc2c(cc1C3=O)OCO2 | > 100 | > 100 | > 100 | > 100 | – | – | 11.8 | 34 | 50.1 | > 100 | 21.5 | > 100 | > 100 | > 100 | > 100 | > 100 | > 100 | > 100 | – | –
6 | [O-]/N=[N+](/[O-])C1CCCCC1=[N+]1CCOCC1 (configuration not stated) | – | – | – | > 100 | – | > 100 | – | > 100 | – | > 100 | – | > 100 | – | > 100 | – | > 100 | – | > 100 | – | > 100
7 | O=C(C=Nc1ccccc1C(=O)[O-])c1cccs1.O=C(C=Nc1ccccc1C(=O)[O-])c1cccs1.[Ni+2] | – | – | – | > 100 | – | > 100 | – | – | – | > 100 | – | > 100 | – | > 100 | – | > 100 | – | > 100 | – | > 100
8 | O=C([O][Hg][c]1ccccc1)c1ccccc1 | 1.24 | 2.56 | 1.35 | 2.72 | 1.57 | 2.99 | – | – | 1.6 | 2.95 | 2.6 | 9.27 | 11.6 | 24.1 | 1.38 | 2.8 | 1.45 | 2.99 | 1.85 | 7.33
9 | COc1cc2c(cc1OC)C(C#N)N(C(=O)c1ccccc1)C=C2OC(=O)c1ccccc1 (configuration not stated) | – | – | – | 77 | – | 43.6 | – | 71.9 | – | 50.5 | – | > 100 | – | > 100 | – | 74.7 | – | – | – | –
10 | CC(=O)OCC12CN(C#N)C3C4COC(CC41)C1(C(=O)N(C)c4ccccc41)C32 (configuration not stated) | – | 38.3 | – | 52.4 | – | 38 | – | 88.9 | – | 66.5 | – | 94.5 | – | > 100 | – | > 100 | – | 40.7 | – | –
11 | O=C(CN1CCN(Cc2ccccc2Cl)CC1)NC1CC(=O)c2c(Br)sc(Br)c21 (configuration not stated) | – | – | 14.1 | 31.6 | 35.1 | > 100 | 21.7 | 42 | 44.3 | 97.1 | 18.3 | 35.2 | 20.9 | 40.6 | 19.7 | 35.3 | 17.3 | 32.9 | 20.5 | 35.4
12 | O=Cc1cccc2ccc3ccccc3c12 | – | 61 | – | – | – | 83.8 | – | – | – | 40.2 | – | 57.8 | – | 25.4 | – | 58.7 | – | 39.4 | – | 62.7
13 | COC(=O)C1=COC2OC3C(C(C)O)C(=O)OC34C=CC1C24 (configuration not stated) | – | – | – | > 100 | – | > 100 | – | > 100 | – | > 100 | – | > 100 | – | > 100 | – | > 100 | – | > 100 | – | > 100
14 | O=C1/C(=C/c2ccc([N+](=O)[O-])s2)Oc2cc(Cl)ccc21 | 1.04 | 2.63 | 0.631 | 2.53 | 0.475 | 1.84 | – | – | 8.27 | > 21.1 | 1.84 | > 100 | 0.758 | 4.56 | 1.02 | 2.21 | – | – | 29.8 | > 85.2
15 | COC(=O)C1CSC(c2csc(CCN)n2)=N1 (configuration not stated) | – | > 100 | – | > 100 | – | > 100 | – | > 100 | – | > 100 | – | > 100 | – | > 100 | – | > 100 | – | > 100 | – | –
16 | COc1ccc(-c2cc(/C=C3\C(=O)Nc4cc(Cl)ccc43)[nH]n2)cc1 | 2.03 | 7.36 | 2.33 | 56.9 | 5.49 | > 100 | – | – | 7.74 | > 100 | 3.43 | 23.1 | 3.46 | 56.1 | 3.46 | 25.8 | 3.63 | > 100 | 2.38 | 7.04
17 | O=C(COc1ccccc1Cl)N1N=C(c2ccccc2)CC1(O)c1ccccc1 (configuration not stated) | – | – | – | 42.3 | – | 55.7 | – | – | – | 49.2 | – | 32 | – | 41.8 | – | 23.9 | – | 51.3 | – | –
